Data published in PubChem BioAssay AID1259407 (Chemical Carcinogenesis Research Information System (CCRIS), 2018).
Active and inactive are the calls of the source. No rule for the calls is given here.

System: CCRIS mutagenicity, Ames/micronucleus/aberration tests
Test: CCRIS mutagenicity studies
[1] = Test System: AMES SALMONELLA TYPHIMURIUM, Strain/Indicator: TA98, Metabolic Activation: NONE, Method: PREINCUBATION
[2] = Test System: AMES SALMONELLA TYPHIMURIUM, Strain/Indicator: TA100, Metabolic Activation: NONE, Method: PREINCUBATION
[3] = Test System: AMES SALMONELLA TYPHIMURIUM, Strain/Indicator: TA1535, Metabolic Activation: NONE, Method: PREINCUBATION
[4] = Test System: AMES SALMONELLA TYPHIMURIUM, Strain/Indicator: TA1537, Metabolic Activation: NONE, Method: PREINCUBATION

Measured: mutagenic call

O=C(O)c1cccc(Cl)c1
inactive: Test System: AMES SALMONELLA TYPHIMURIUM, Strain/Indicator: TA97, Metabolic Activation: HAMSTER, LIVER, S-9, AROCLOR 1254 (10%), Method: PREINCUBATION inactive; negative | Test System: AMES SALMONELLA TYPHIMURIUM, Strain/Indicator: TA97, Metabolic Activation: HAMSTER, LIVER, S-9, AROCLOR 1254 (30%), Method: PREINCUBATION inactive; negative | Test System: AMES SALMONELLA TYPHIMURIUM, Strain/Indicator: TA97, Metabolic Activation: NONE, Method: PREINCUBATION inactive; negative | Test System: AMES SALMONELLA TYPHIMURIUM, Strain/Indicator: TA97, Metabolic Activation: RAT, LIVER, S-9, AROCLOR 1254 (10%), Method: PREINCUBATION inactive; negative | Test System: AMES SALMONELLA TYPHIMURIUM, Strain/Indicator: TA97, Metabolic Activation: RAT, LIVER, S-9, AROCLOR 1254 (30%), Method: PREINCUBATION inactive; negative | Test System: AMES SALMONELLA TYPHIMURIUM, Strain/Indicator: TA98, Metabolic Activation: HAMSTER, LIVER, S-9, AROCLOR 1254 (10%), Method: PREINCUBATION inactive; negative | Test System: AMES SALMONELLA TYPHIMURIUM, Strain/Indicator: TA98, Metabolic Activation: HAMSTER, LIVER, S-9, AROCLOR 1254 (30%), Method: PREINCUBATION inactive; negative | [1] inactive; negative | Test System: AMES SALMONELLA TYPHIMURIUM, Strain/Indicator: TA98, Metabolic Activation: RAT LIVER S-9, PCB, Method: PREINCUBATION inactive; negative | Test System: AMES SALMONELLA TYPHIMURIUM, Strain/Indicator: TA98, Metabolic Activation: RAT, LIVER, S-9, AROCLOR 1254 (10%), Method: PREINCUBATION inactive; negative | Test System: AMES SALMONELLA TYPHIMURIUM, Strain/Indicator: TA98, Metabolic Activation: RAT, LIVER, S-9, AROCLOR 1254 (30%), Method: PREINCUBATION inactive; negative | Test System: AMES SALMONELLA TYPHIMURIUM, Strain/Indicator: TA100, Metabolic Activation: HAMSTER, LIVER, S-9, AROCLOR 1254 (10%), Method: PREINCUBATION inactive; negative | Test System: AMES SALMONELLA TYPHIMURIUM, Strain/Indicator: TA100, Metabolic Activation: HAMSTER, LIVER, S-9, AROCLOR 1254 (30%), Method: PREINCUBATION inactive; negative | [2] inactive; negative | Test System: AMES SALMONELLA TYPHIMURIUM, Strain/Indicator: TA100, Metabolic Activation: RAT LIVER S-9, PCB, Method: PREINCUBATION inactive; negative | Test System: AMES SALMONELLA TYPHIMURIUM, Strain/Indicator: TA100, Metabolic Activation: RAT, LIVER, S-9, AROCLOR 1254 (10%), Method: PREINCUBATION inactive; negative | Test System: AMES SALMONELLA TYPHIMURIUM, Strain/Indicator: TA100, Metabolic Activation: RAT, LIVER, S-9, AROCLOR 1254 (30%), Method: PREINCUBATION inactive; negative | Test System: AMES SALMONELLA TYPHIMURIUM, Strain/Indicator: TA104, Metabolic Activation: NONE, Method: PREINCUBATION inactive; negative | Test System: AMES SALMONELLA TYPHIMURIUM, Strain/Indicator: TA104, Metabolic Activation: RAT LIVER S-9, PCB, Method: PREINCUBATION inactive; negative | Test System: AMES SALMONELLA TYPHIMURIUM, Strain/Indicator: TA1535, Metabolic Activation: HAMSTER, LIVER, S-9, AROCLOR 1254 (10%), Method: PREINCUBATION inactive; negative | Test System: AMES SALMONELLA TYPHIMURIUM, Strain/Indicator: TA1535, Metabolic Activation: HAMSTER, LIVER, S-9, AROCLOR 1254 (30%), Method: PREINCUBATION inactive; negative | [3] inactive; negative | Test System: AMES SALMONELLA TYPHIMURIUM, Strain/Indicator: TA1535, Metabolic Activation: RAT, LIVER, S-9, AROCLOR 1254 (10%), Method: PREINCUBATION inactive; negative | Test System: AMES SALMONELLA TYPHIMURIUM, Strain/Indicator: TA1535, Metabolic Activation: RAT, LIVER, S-9, AROCLOR 1254 (30%), Method: PREINCUBATION inactive; negative | Test System: AMES SALMONELLA TYPHIMURIUM, Strain/Indicator: TA1537, Metabolic Activation: HAMSTER, LIVER, S-9, AROCLOR 1254 (30%), Method: PREINCUBATION inactive; negative | [4] inactive; negative | Test System: AMES SALMONELLA TYPHIMURIUM, Strain/Indicator: TA1537, Metabolic Activation: RAT, LIVER, S-9, AROCLOR 1254 (30%), Method: PREINCUBATION inactive; negative | Test System: E.COLI, Strain/Indicator: WP2 UVRA, Metabolic Activation: NONE, Method: PREINCUBATION inactive; negative | Test System: E.COLI, Strain/Indicator: WP2 UVRA, Metabolic Activation: RAT LIVER S-9, PCB, Method: PREINCUBATION inactive; negative

CCNCC#CC(C)(C)OC(=O)C(O)(c1ccccc1)C1CCCCC1 (centres undefined)
inactive: Test System: AMES SALMONELLA TYPHIMURIUM, Strain/Indicator: TA98, Metabolic Activation: NONE, Method: STANDARD PLATE inactive; negative | Test System: AMES SALMONELLA TYPHIMURIUM, Strain/Indicator: TA98, Metabolic Activation: RAT, LIVER, S-9, PHENOBARBITAL AND 5,6-BENZOFLAVONE, Method: STANDARD PLATE inactive; negative | Test System: AMES SALMONELLA TYPHIMURIUM, Strain/Indicator: TA100, Metabolic Activation: NONE, Method: STANDARD PLATE inactive; negative | Test System: AMES SALMONELLA TYPHIMURIUM, Strain/Indicator: TA100, Metabolic Activation: RAT, LIVER, S-9, PHENOBARBITAL AND 5,6-BENZOFLAVONE, Method: STANDARD PLATE inactive; negative | Test System: AMES SALMONELLA TYPHIMURIUM, Strain/Indicator: TA1535, Metabolic Activation: NONE, Method: STANDARD PLATE inactive; negative | Test System: AMES SALMONELLA TYPHIMURIUM, Strain/Indicator: TA1535, Metabolic Activation: RAT, LIVER, S-9, PHENOBARBITAL AND 5,6-BENZOFLAVONE, Method: STANDARD PLATE inactive; negative | Test System: AMES SALMONELLA TYPHIMURIUM, Strain/Indicator: TA1537, Metabolic Activation: NONE, Method: STANDARD PLATE inactive; negative | Test System: AMES SALMONELLA TYPHIMURIUM, Strain/Indicator: TA1537, Metabolic Activation: RAT, LIVER, S-9, PHENOBARBITAL AND 5,6-BENZOFLAVONE, Method: STANDARD PLATE inactive; negative | Test System: E. COLI, Strain/Indicator: WP2 UVRA, Metabolic Activation: NONE, Method: STANDARD PLATE inactive; negative | Test System: E. COLI, Strain/Indicator: WP2 UVRA, Metabolic Activation: RAT, LIVER, S-9, PHENOBARBITAL AND 5,6-BENZOFLAVONE, Method: STANDARD PLATE inactive; negative

CCCCN(CCCC)[N+](=O)[O-]
active: Test System: E. COLI, Strain/Indicator: WP2 (HCR-), Metabolic Activation: RAT, LIVER, MICROSOMES, PHENOBARBITAL active; positive

CC(=O)OCC(O)CO (centres undefined)
active: Test System: AMES SALMONELLA TYPHIMURIUM, Strain/Indicator: TA1535, Metabolic Activation: HAMSTER, LIVER, S-9, AROCLOR 1254, Method: PREINCUBATION active; positive | [3] active; positive | Test System: AMES SALMONELLA TYPHIMURIUM, Strain/Indicator: TA1535, Metabolic Activation: RAT, LIVER, S-9, AROCLOR 1254, Method: PREINCUBATION active; positive
inactive: End Point: IN VITRO CHROMOSOMAL ABERRATIONS, Test System: CHO CELLS, Metabolic Activation: NONE inactive; negative | End Point: IN VITRO CHROMOSOMAL ABERRATIONS, Test System: CHO CELLS, Metabolic Activation: RAT, LIVER, S-9, AROCLOR 1254 inactive; negative | Test System: AMES SALMONELLA TYPHIMURIUM, Strain/Indicator: TA98, Metabolic Activation: HAMSTER, LIVER, S-9, AROCLOR 1254, Method: PREINCUBATION inactive; negative | [1] inactive; negative | Test System: AMES SALMONELLA TYPHIMURIUM, Strain/Indicator: TA98, Metabolic Activation: RAT, LIVER, S-9, AROCLOR 1254, Method: PREINCUBATION inactive; negative | Test System: AMES SALMONELLA TYPHIMURIUM, Strain/Indicator: TA100, Metabolic Activation: HAMSTER, LIVER, S-9, AROCLOR 1254, Method: PREINCUBATION inactive; negative | [2] inactive; negative | Test System: AMES SALMONELLA TYPHIMURIUM, Strain/Indicator: TA100, Metabolic Activation: RAT, LIVER, S-9, AROCLOR 1254, Method: PREINCUBATION inactive; negative | Test System: AMES SALMONELLA TYPHIMURIUM, Strain/Indicator: TA1537, Metabolic Activation: HAMSTER, LIVER, S-9, AROCLOR 1254, Method: PREINCUBATION inactive; negative | [4] inactive; negative | Test System: AMES SALMONELLA TYPHIMURIUM, Strain/Indicator: TA1537, Metabolic Activation: RAT, LIVER, S-9, AROCLOR 1254, Method: PREINCUBATION inactive; negative
